From ChEMBL document CHEMBL4325834, “De Novo Molecular Design of a Novel Octapeptide That Inhibits In Vivo Melanogenesis and Has Great Transdermal Ability” (J Med Chem, 2018)
The source made the active and inactive calls. The rule behind the calls is not given here. Where a SMILES comes first, the peptide text is derived from it.

Experiments:
Cavia porcellus [1] = assay: (§1) Anti-melanogenic activity in UVB-induced pigmentation Dunkin-Hartley guinea pig model assessed as inhibition of UV-induced melanin production administered topically using PG solvent 6 hrs before UV radiation every day for 2 weeks by Fontana-Masson-staining based assay; format: functional, organism-based
[2] = Toxicity in Dunkin-Hartley guinea pig model of UVB-induced pigmentation assessed as abnormal morphological changes in epidermis at 1 mM to 2 mM administered topically 6 hrs before UV radiation every day for 2 weeks by Fontana-Masson-staining based assay; set-up: species or system Cavia porcellus; settings: in vivo, topical_or_ocular, 1000 µM
B16 [3] = assay: Downregulation of TYR protein expression in mouse B16 cells after 72 hrs by Western blot analysis; format: functional, cell-based
[4] = Hemolytic activity against human erythrocytes assessed as amount of hemoglobin released from lysed cells up to 150 uM relative to control; format: ADME, cell-based, Erythrocyte; settings: read-out: Activity
LAD2 [5] = assay: (§2) Proinflammatory activity in human LAD2 cells assessed as increase in mast-cell degranulation by measuring beta-hexosaminidase release at 0.5 mM preincubated for 30 mins followed 4-nitrophenyl-N-acetyl-beta-D-glucosaminide substrate addition and measured after 90 mins by fluorescence-based microplate reader analysis relative to control; format: ADME; settings: lad2, 1.5 h, 500 µM
Cavia porcellus [6] = assay: as §1, with “production in epidermis basal layer at 1 to 2 mM” for “production”, “CP hydrogel” for “PG solvent”; format: functional, organism-based
[7] = target: T1, Tyrosinase (Mus musculus) (UniProt P11344); assay: Inhibition of TYR activity in mouse B16 cells 20 uM using L-dopa as substrate after 72 hrs relative to control; format: cell-based
T1 sequence (whole entry): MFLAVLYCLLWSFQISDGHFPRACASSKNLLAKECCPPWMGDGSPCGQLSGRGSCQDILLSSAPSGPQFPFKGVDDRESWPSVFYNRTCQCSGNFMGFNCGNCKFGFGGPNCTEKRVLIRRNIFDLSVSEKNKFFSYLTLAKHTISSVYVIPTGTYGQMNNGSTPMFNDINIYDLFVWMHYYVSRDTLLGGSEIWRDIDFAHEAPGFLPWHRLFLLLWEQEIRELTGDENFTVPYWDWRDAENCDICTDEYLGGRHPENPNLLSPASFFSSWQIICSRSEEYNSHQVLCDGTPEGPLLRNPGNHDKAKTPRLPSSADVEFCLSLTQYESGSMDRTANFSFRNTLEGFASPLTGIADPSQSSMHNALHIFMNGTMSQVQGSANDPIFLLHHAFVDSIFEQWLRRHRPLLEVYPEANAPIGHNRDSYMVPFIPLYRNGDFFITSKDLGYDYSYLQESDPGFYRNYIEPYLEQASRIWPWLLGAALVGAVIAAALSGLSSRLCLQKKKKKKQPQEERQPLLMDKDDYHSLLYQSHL

[8] = Drug uptake in skin basal layer of brown guinea pig at 2 mM dosed topically after 2 to 4 hrs using FITC-labelled compound by H and E staining-based fluorescence microscopy; format: ADME, organism-based, Cavia porcellus; settings: in vivo, topical_or_ocular, 2000 µM
Cavia porcellus [9] = assay: as §1, with “production in epidermis basal layer at 1 to 2 mM” for “production”; format: functional, organism-based
[10] = Drug uptake in skin dermis of brown guinea pig at 2 mM dosed topically after 30 mins using FITC-labelled compound by H and E staining-based fluorescence microscopy; format: ADME, organism-based, Cavia porcellus; settings: in vivo, topical_or_ocular, 0.5 h, 2000 µM
[11] = Drug uptake in skin basal layer of brown guinea pig at 2 mM dosed topically after 1 hr using FITC-labelled compound by H and E staining-based fluorescence microscopy; format: ADME, organism-based, Cavia porcellus; settings: in vivo, topical_or_ocular, 2000 µM
Mus musculus = species on record: Mus musculus; assay: Effect on ERK phosphorylation in mouse B16 cells up to 80 uM after 72 hrs by Western blot analysis; format: cell-based
[12] = Reducing power of the compound assessed as reducing Fe3+ power at 80 uM using K3Fe(CN)6 in pH 6.6 phosphate buffer relative to control
[13] = target: T1, Tyrosinase (Mus musculus); assay: Inhibition of TYR activity in mouse B16 cells assessed as melanin levels post exfoliation at 20 uM after 72 hrs by spectrophotometric analysis relative to control; format: cell-based; set-up: scale not given: the % may be the effect or the level left
HaCaT = assay: Cytotoxicity against human HaCaT cells up to 150 uM by MTT assay relative to control; format: cell-based
LAD2 [14] = assay: as §2, with “2” for “0.5”; format: ADME; settings: lad2, 1.5 h, 2000 µM
[15] = target: T2, Tyrosinase (Agaricus bisporus) (UniProt O42713); assay: Inhibition of mushroom tyrosinase using L-dopa as substrate assessed as reduction in L-dopa oxidation at IC50 by spectrophotometry
T2 sequence (whole entry): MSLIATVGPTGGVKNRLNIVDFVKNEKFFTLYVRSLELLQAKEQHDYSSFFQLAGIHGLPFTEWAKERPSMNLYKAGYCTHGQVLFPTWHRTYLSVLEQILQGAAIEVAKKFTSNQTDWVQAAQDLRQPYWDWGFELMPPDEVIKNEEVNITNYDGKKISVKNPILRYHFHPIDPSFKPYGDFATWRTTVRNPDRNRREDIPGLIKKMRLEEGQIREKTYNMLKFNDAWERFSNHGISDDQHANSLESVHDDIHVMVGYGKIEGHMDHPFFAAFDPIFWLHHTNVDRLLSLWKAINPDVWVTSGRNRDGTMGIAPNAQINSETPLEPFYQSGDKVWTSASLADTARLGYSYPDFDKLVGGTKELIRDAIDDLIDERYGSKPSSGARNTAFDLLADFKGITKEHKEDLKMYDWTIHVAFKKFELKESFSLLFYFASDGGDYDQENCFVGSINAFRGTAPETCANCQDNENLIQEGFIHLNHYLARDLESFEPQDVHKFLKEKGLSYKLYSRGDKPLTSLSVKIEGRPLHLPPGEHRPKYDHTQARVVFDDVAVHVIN

[16] = Antioxidant activity assessed as ABTS radical scavenging activity at 80 uM after 10 mins relative to control; format: functional
[17] = Toxicity in Dunkin-Hartley guinea pig model of UVB-induced pigmentation assessed as abnormal morphological changes in dermis at 1 mM to 2 mM administered topically 6 hrs before UV radiation every day for 2 weeks by Fontana-Masson-staining based assay; format: tissue-based, Cavia porcellus; settings: in vivo, topical_or_ocular, 1000 µM
Tyrosinase = target: T3, Tyrosinase (Agaricus bisporus, UniProt O42713); assay: Inhibition of mushroom tyrosinase using L-dopa as substrate assessed as reduction in dopachrome production after 20 mins by spectrophotometry
T3 sequence (O42713 whole entry): T2 sequence (whole entry)

[18] = Drug uptake in skin epidermis of brown guinea pig at 2 mM dosed topically after 30 mins using FITC-labelled compound by H and E staining-based fluorescence microscopy; format: ADME, organism-based, Cavia porcellus; settings: in vivo, topical_or_ocular, 0.5 h, 2000 µM
B16 [19] = assay: Cytotoxicity against mouse B16 cells up to 150 uM by MTT assay relative to control; format: cell-based
[20] = target: MAP kinase p38 (Mus musculus) (UniProt P47811+O08911+Q9WUI1+Q9Z1B7); assay: Effect on p38 phosphorylation in mouse B16 cells up to 80 uM after 72 hrs by Western blot analysis; format: cell-based
[21] = target: T2, Tyrosinase (Agaricus bisporus); assay: Potency index, ratio of IC50 for arbutin to IC50 for test compound for inhibition of mushroom tyrosinase using L-dopa as substrate assessed as reduction in dopachrome production after 20 mins by spectrophotometry

Activity (LAD2 [5]): 7.15%
inhibition [7]: 25.7%
Drug uptake [8]: Not Active
Drug uptake [10]: Active
Drug uptake [11]: Active
Activity [13]: 52.2%
Activity (LAD2 [14]): 10.51%
inhibition [15]: Active
IC50 (Tyrosinase): 53 µM
Drug uptake [18]: Active
Activity [20]: inactive
Ratio IC50 [21]: 10
Structure (SMILES): CC(C)[C@H](NC(=O)[C@H](CCCNC(=N)N)NC(=O)[C@H](Cc1ccccc1)NC(=O)[C@H](CS)NC(=O)[C@H](CCCNC(=N)N)NC(=O)[C@@H](N)[C@@H](C)O)C(=O)N[C@@H](CS)C(=O)N[C@@H](CO)C(=O)O (H-TRCFRVCS-OH)
Activity (Cavia porcellus [1]): Dose-dependent effect
Activity [2]: Non-Toxic
inhibition (B16 [3]): Active
hemolysis [4]: 1%
Activity (Cavia porcellus [6]): Active
Activity (Cavia porcellus [9]): Active
Activity (Mus musculus): inactive
Activity [12]: 0.31
Activity (HaCaT): 9%
Activity [16]: 63%
Activity [17]: Non-Toxic
Activity (B16 [19]): 10%
